Reference: patent US20220265690A1, “USE OF SOTAGLIFLOZIN FOR THE TREATMENT OF PATIENTS WITH TYPE 2 DIABETES MELLITUS AND MODERATE RENAL IMPAIRMENT” (Lexicon Pharmaceuticals, Inc., priority 2019, published 2022)

How the values were obtained:
[1] = system: patients with T2D and documented moderate renal insufficiency (CKD 3A, 3B); experiment: Multicentre, double-blind, placebo-controlled clinical study of sotagliflozin 200 mg and 400 mg once daily; HbA1c change at Week 26; format: in vivo; details: for HbA1c (%) Change from baseline to Week 26 LS Mean difference (SE) vs. placebo / HbA1c (%) Change from baseline to Week 26 LS Mean (SE) / HbA1c (%) Week 26 Mean (SD) / HbA1c (%) Week 26 Median: overall ITT population; for HbA1c (%) Change from baseline to Week 26 LS Mean (SE): ANCOVA, multiple imputation; for LS mean change in HbA1c from baseline to W26 / mean HbA1c level reached at W26: sotagliflozin 400 mg
Procedure: The efficacy, relative to a placebo, […], was evaluated in multicentre, double-blind clinical with random distribution in three groups of treatment (group treated with sotagliflozin 200 mg daily dose, group treated with sotagliflozin 400 mg daily dose, and group treated with a placebo) of patients. The selected patients were adult patients with T2D (drug-naïve or on antidiabetic therapy) and documented moderate renal insufficiency defined by an eGFR (based on the 4 variable Modification of Diet in Renal Disease [MDRD] equation) of ≥30 and <60 mL/min/1.73 m^2 (CKD 3A, 3B). The study was conducted as follows: • Screening Phase—Visit 1 (up to 2 weeks) • Run-in phase (Visit 2), lasted 2 weeks. Patients were treated in a single-blind manner with two placebo tablets (identical to sotagliflozin 200 mg in appearance) administered once daily during the Run-in phase, starting from Visit 2 • Double-blind Treatment Period (Day 1 to Week 26): Eligible patients will be randomized on Day 1 (Visit 3). Following randomization, patients will be treated in a double-blind manner for 52 weeks. A total of 787 patients ≥18 years of age (or ≥legal age of the majority, whichever is greater) were randomly assigned 1:1:1 to the following 3 treatment groups: • Placebo, given as two (2) placebo tablets (identical to sotagliflozin 200 mg in appearance), once daily, before the first meal of the day • Sotagliflozin 200 mg, given as 2 tablets: 1 sotagliflozin 200 mg tablet and 1 placebo tablet (identical to sotagliflozin 200 mg in appearance), once daily • Sotagliflozin 400 mg, given as two (2) 200 mg tablets, once daily, before the first meal of the day. • Double-blind Extension Period (Week 27 to Week 52): • Follow-up Period Following the last dose of the IMP: a 4 week post-treatment visit to collect safety and some efficacy information. […] Efficacy analysis was based on the intent-to-treat (ITT) population using efficacy assessments obtained during the study, including those obtained after investigational medicinal product (IMP) discontinuation or introduction of rescue therapy. The ITT population consisted of all randomized patients. The primary efficacy endpoint was analyzed using an analysis of covariance (ANCOVA) model. The ANCOVA model included treatment groups (sotagliflozin 200 mg, sotagliflozin 400 mg, placebo), randomization stratum of HbA1c (≤8.5%, >8.5%), randomization stratum of SBP (<130, ≥130 mmHg), randomization stratum of CKD stage (3A, 3B), and country as fixed effects, and baseline HbA1c value as a covariate.

[2] = system: patients with type 2 diabetes; details: phase II trials; cited from earlier work
[3] = sotagliflozin 200 mg once daily
[4] = sotagliflozin 400 mg once daily
[5] = sotagliflozin 400 mg once daily, listed as sotagliflozin

CCOc1ccc(Cc2cc([C@@H]3O[C@H](SC)[C@@H](O)[C@H](O)[C@H]3O)ccc2Cl)cc1 [Sotagliflozin, sotagliflozin]
HbA1c (%) Change from baseline to Week 26 LS Mean difference (SE) vs. placebo ([1]; sotagliflozin 200 mg once daily, 95% CI (−0.244, 0.054), p-value 0.2129): −0.09 (0.076) % | HbA1c (%) Change from baseline to Week 26 LS Mean (SE) [1, 3]: −0.32 (0.060) % | HbA1c (%) Week 26 Mean (SD) [1, 3]: 7.82 (0.99) % | HbA1c (%) Week 26 Median [1, 3]: 7.70% | HbA1c (%) Change from baseline to Week 26 LS Mean difference (SE) vs. placebo ([1]; sotagliflozin 400 mg once daily, 95% CI (−0.382, −0.082), p-value 0.0024): −0.23 (0.076) % | HbA1c (%) Change from baseline to Week 26 LS Mean (SE) [1, 4]: −0.46 (0.060) % | HbA1c (%) Change from baseline to Week 26 LS Mean (SE) [1, 5]: −0.46% | HbA1c (%) Week 26 Mean (SD) [1, 4]: 7.72 (1.00) % | HbA1c (%) Week 26 Median [1, 4]: 7.60% | HbA1c (%) Week 26 Mean (SD) [1, 5]: 7.72% | LS mean change in HbA1c from baseline to W26 ([1]; CKD3A population): −0.54% | mean HbA1c level reached at W26 ([1]; CKD3A population): 7.62% | LS mean change in HbA1c from baseline to W26 ([1]; CKD3B population): −0.37% | mean HbA1c level reached at W26 ([1]; CKD3B population): 7.82% | glycemic control (reduction in A1C) [2]: significantly improve glycemic control
